Test results published in patent US11680086B2, “Lipopeptide for potently inhibiting HIV, derivative thereof, pharmaceutical composition thereof and use thereof” (Institute of Pathogen Biology, Chinese Academy of Medical …, priority 2017, dated 2023).
Peptide text beside a SMILES is read from it. * marks the point of attachment. X1 = Cc1c(C)c2c(c(C)c1OC(=O)CCC(=O)*)CCC(C)(CCCC(C)CCCC(C)CCCC(C)C)O2; Stearoyl = CCCCCCCCCCCCCCCCCC(=O)*; Palmitoyl = CCCCCCCCCCCCCCCC(=O)*

Columns and labels:
[1] = target: N39 (NHR-derived polypeptide of gp41) (Human immunodeficiency virus type 1 group M subtype B, UniProt P04578); format: binding, HIV-1; details: 10 μM each, PBS pH 7.2
Chain of N39 (NHR-derived polypeptide of gp41) (P04578 528-566): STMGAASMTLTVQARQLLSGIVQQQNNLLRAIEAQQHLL
Method: (§1) The circular dichroism spectrophotometer was Jasco-815 by JASCO Inc., and the assay method was referred to the papers published by the inventors (see the References 18 and 30 listed in the Background Art). […] The N39 and an inhibitor were separately dissolved in a phosphate buffered saline (PBS) to prepare a PBS solution (pH 7.2) of a concentration of 20 μM. The N39 was mixed with an inhibitor at a volume ratio of 1:1 (final concentration of 10 μM for each), the mixed sample was placed at 37° C. for 30 minutes to fully react, and then the helix content and Tm value of the resultant complex were measured by the circular dichroism spectrophotometer. The scan wavelength range of the device was 195-260 nm with a wavelength interval of 1 nm, and the values measured by scanning for three times were averaged. Based on the CD signals, the interaction between the polypeptides and the helix content were determined. Then, the sample for CD signal measurement was transferred to the temperature scanning sample cell, the program of the CD device was set to temperature scanning with a detection wavelength of 220 nm and scanning range of 20-98° C., and the program scan was performed to obtain the curve of the CD signals vs temperature, based on which the Tm value was calculated. Based on the Tm value, the stability of the formed helical structure of the inhibitor and N39 was judged.

[2] = tested on: HIV-1 strain NL4-3 (NL4-3D36G); test: antiviral activity in serum of macaque after subcutaneous injection; format: in vivo, macaques (rhesus monkeys); details: 3 mg/kg subcutaneous
Method: The specific method was as follows: 6 experimental macaques (rhesus monkeys) were selected, half male and half female, aged 3-4 years old, weighing 3.4-4.7 kg. […] The serum was separated according to a conventional method. The injection interval of each inhibitor was more than 2 weeks to ensure that there was no residue of the previous analyte. The serum activity against the HIV-1 strain NL4-3 (NL4-3D36G) was measured according to the experimental method of the pseudovirus-based assay in the above examples. The serum was diluted by 3 folds. […] Therefore, the lipopeptides of the present invention were not only potent but also were long-lasting effective.

[3] = tested on: SIV pseudoviruses SIVpbj and SIV239; test: inhibition of SIV pseudoviruses; format: cell-based
Method: The supernatant was discarded from the wells. […] Inhibition rate (%) and IC50 value were calculated.
(§2) In order to further reflect the antiviral advantages of the potent lipopeptides of the present invention, their inhibitory activity against HIV-2 and SIV was determined in the example. The methods of antiviral activity assays used were described in the literatures published by the present inventors (see the References 13 and 30 listed in the Background Art). The molecular cloning plasmid pROD of the HIV-2 strain ROD (HIV-2ROD) was kindly provided by Professor Nuno Taveira from the University of Lisbon, Portugal, and the plasmids expressing the SIV strain SIVpbj (SIVPBJ) and SIV239 envelope proteins (pSIVpbj-Env and pSIV239, respectively) were kindly provided by Professor Xu Jianqing from the Fudan University. The preparation of the infectious ROD was the same as that of the infectious JRCSF in the above section 2.1, and the pseudoviruses SIVpbj and SIV239 were prepared by a method same as that described in the above Examples 2 and 3.

[4] = circular dichroism secondary structure analysis of the inhibitors themselves; format: physicochemical; details: for secondary structure of the inhibitor itself (in words): 10 μM, 20 μM and 40 μM in PBS
Method: as §1
For easy analysis, the α-helix content and the Tm value of the inhibitors were measured at concentrations of 10 μM, 20 μM, and 40 μM (PBS solution), respectively.

[5] = tested on: HIV-2 strain ROD (infectious); test: inhibition of HIV-2; format: cell-based; details: HIV-2 ROD
Method: Inhibition rate (%) and IC50 value were calculated.
as §2

[6] = tested on: HIV-1; details: cell fusion, entry and replication; compared with parent or control peptide
From the text: HIV-1 pseudovirus-mediated cell entry inhibition assay: basic steps included: (1) Preparation of HIV-1 pseudovirus: the 293T cells were co-transfected with a plasmid expressing the envelope protein (Env) of HIV-1 strain NL4-3 (i.e., a recombinant expression plasmid obtained by inserting the gene encoding the envelope protein (ENV) of the D36G mutant of the HIV-1 strain NL4-3 in the Table 2 of the Reference 14 listed in the Background Art into the vector pcDNA3.1(−)) and the HIV-1 backbone plasmid pSG3Δenv (provided by the AIDS Reagent Program of National Institutes of Health (NIH), catalog number: 11051) by using a cell transfection reagent, incubated in a cell incubator of 37° C. and 5% CO2 for 6 hours, and then the medium was changed, and the cells were further incubated for 48 hours. The cell culture supernatant containing pseudovirus particles was pipetted and filtered with a 0.45 μm filter to collect the supernatant, then 20% fetal bovine serum (FBS) was added thereto, the final solution was transferred to a polypropylene tube, and stored at −80° C. for ready for use or directly subjected to virus titration. (2) Titration of HIV-1 pseudovirus: the viruses were diluted by 5 folds in a 96-well plate, and 4 replicate wells with 8 gradients were set to a final volume of 100 microliters. The TZM-b1 cells were trypsinized and counted, and the cells were diluted to 1×10^5 cells/ml with DMEM complete medium; 100 μl of cells dilution (containing 15 μg/ml DEAE-dextran) per well were added and cultured at 37° C. and 5% CO2 for 48 hours. The 96-well plate was then taken from the cell culture incubator. The supernatant was discarded from the wells. To each well, 30 μl of a cell lysate was added, and after 10 minutes, 100 μl of a luciferase detection reagent was added. 100 μl of liquid was pipetted from each well and added to a corresponding 96-well white plate, and the luminescence values were read by a microplate photometer. The virus titer was calculated by the Reed-Muench method. […]

[7] = 72 hours (3 days) after injection

## CCCCCCCCCCCCCCCC(=O)NCCCC[C@H](NC(=O)[C@H](CCC(=O)O)NC(=O)[C@H](CC(C)C)NC(=O)[C@H](CCCCN)NC(=O)[C@H](CCCCN)NC(=O)[C@H](CC(C)C)NC(=O)[C@H](CCC(=O)O)NC(=O)[C@H](CCC(=O)O)NC(=O)[C@H](CCC(=O)O)NC(=O)[C@H](CC(N)=O)NC(=O)[C@H](CCCCN)NC(=O)[C@H](CCCCN)NC(=O)[C@H](CCC(N)=O)NC(=O)[C@H](CCC(N)=O)NC(=O)[C@H](CCC(=O)O)NC(=O)[C@H](CCC(=O)O)NC(=O)[C@H](C)NC(=O)[C@H](CCCCN)NC(=O)[C@H](CCCCN)NC(=O)[C@H](CC(C)C)NC(=O)[C@H](CC(C)C)NC(=O)[C@H](CCC(=O)O)NC(=O)[C@H](CCC(=O)O)NC(=O)[C@@H](NC(=O)[C@H](CCCCN)NC(=O)[C@H](CCC(N)=O)NC(=O)[C@H](CCC(=O)O)NC(=O)[C@H](Cc1c[nH]c2ccccc12)NC(C)=O)[C@@H](C)CC)C(N)=O [LP-52] (Ac-WEQKIEELLKKAEEQQKKNEEELKKLEK(Palmitoyl)-NH2)
[1]
  Tm value of the complex with N39: 79.1 °C
  helix content of the complex with N39: 63.8%
[2]; 4 hour after injection
  maximum serum dilution multiple for inhibiting 50% of NL4-3 infectivity: 700802 folds
[2]; 6 hour after injection
  maximum serum dilution multiple for inhibiting 50% of NL4-3 infectivity: 669112 folds
[2]; [7]
  maximum serum dilution multiple for inhibiting 50% of NL4-3 infectivity: 182 folds
[3]
  inhibitory activity against SIV (in words): extremely potent inhibitory activity
[4]
  secondary structure of the inhibitor itself (in words): distinct helical structure
[5]
  inhibitory activity against HIV-2 (in words): extremely potent inhibitory activity

## CCCCCCCCCCCCCCCCCC(=O)NCCCC[C@H](NC(=O)[C@H](CCC(=O)O)NC(=O)[C@H](CC(C)C)NC(=O)[C@H](CCCCN)NC(=O)[C@H](CCCCN)NC(=O)[C@H](CC(C)C)NC(=O)[C@H](CCC(=O)O)NC(=O)[C@H](CCC(=O)O)NC(=O)[C@H](CCC(=O)O)NC(=O)[C@H](CC(N)=O)NC(=O)[C@H](CCCCN)NC(=O)[C@H](CCCCN)NC(=O)[C@H](CCC(N)=O)NC(=O)[C@H](CCC(N)=O)NC(=O)[C@H](CCC(=O)O)NC(=O)[C@H](CCC(=O)O)NC(=O)[C@H](C)NC(=O)[C@H](CCCCN)NC(=O)[C@H](CCCCN)NC(=O)[C@H](CC(C)C)NC(=O)[C@H](CC(C)C)NC(=O)[C@H](CCC(=O)O)NC(=O)[C@H](CCC(=O)O)NC(=O)[C@@H](NC(=O)[C@H](CCCCN)NC(=O)[C@H](CCC(N)=O)NC(=O)[C@H](CCC(=O)O)NC(=O)[C@H](Cc1c[nH]c2ccccc12)NC(C)=O)[C@@H](C)CC)C(N)=O [LP-80] (Ac-WEQKIEELLKKAEEQQKKNEEELKKLEK(Stearoyl)-NH2)
[1]
  Tm value of the complex with N39: 79 °C
[2]; 6 hour after injection
  maximum serum dilution multiple for inhibiting 50% of NL4-3 infectivity: 491409 folds
[2]; 8 hour after injection
  maximum serum dilution multiple for inhibiting 50% of NL4-3 infectivity: 537206 folds
[2]; [7]
  maximum serum dilution multiple for inhibiting 50% of NL4-3 infectivity: 16157 folds
[2]; 96 hours (4 days) after injection
  maximum serum dilution multiple for inhibiting 50% of NL4-3 infectivity: 1980 folds
[2]; 120 hours (5 days) after injection
  maximum serum dilution multiple for inhibiting 50% of NL4-3 infectivity: 211 folds
[2]; 144 hours (6 days) after injection
  maximum serum dilution multiple for inhibiting 50% of NL4-3 infectivity: 46 folds
[3]
  inhibitory activity against SIV (in words): extremely potent inhibitory activity
[4]
  secondary structure of the inhibitor itself (in words): distinct helical structure
[4]; among the four potent lipopeptides
  helix content and Tm value of the inhibitor itself (in words): the higher helix content and Tm value
[5]
  inhibitory activity against HIV-2 (in words): extremely potent inhibitory activity

## CC[C@H](C)[C@H](NC(=O)[C@H](CCCCN)NC(=O)[C@H](CCC(N)=O)NC(=O)[C@H](CCC(=O)O)NC(=O)[C@H](Cc1c[nH]c2ccccc12)NC(C)=O)C(=O)N[C@@H](CCC(=O)O)C(=O)N[C@@H](CCC(=O)O)C(=O)N[C@@H](CC(C)C)C(=O)N[C@@H](CC(C)C)C(=O)N[C@@H](CCCCN)C(=O)N[C@@H](CCCCN)C(=O)N[C@@H](C)C(=O)N[C@@H](CCC(=O)O)C(=O)N[C@@H](CCC(=O)O)C(=O)N[C@@H](CCC(N)=O)C(=O)N[C@@H](CCC(N)=O)C(=O)N[C@@H](CCCCN)C(=O)N[C@@H](CCCCN)C(=O)N[C@@H](CC(N)=O)C(=O)N[C@@H](CCC(=O)O)C(=O)N[C@@H](CCC(=O)O)C(=O)N[C@@H](CCC(=O)O)C(=O)N[C@@H](CC(C)C)C(=O)N[C@@H](CCCCN)C(=O)N[C@@H](CCCCN)C(=O)N[C@@H](CC(C)C)C(=O)N[C@@H](CCC(=O)O)C(=O)N[C@@H](CCCCNC(=O)CCC(=O)Oc1c(C)c(C)c2c(c1C)CCC(C)(CCCC(C)CCCC(C)CCCC(C)C)O2)C(N)=O (stereo partly drawn) [LP-85] (Ac-WEQKIEELLKKAEEQQKKNEEELKKLEK(X1)-NH2)
[1]
  interaction / binding to N39 (in words): strong helical binding stability
[6]
  antiviral activity (in words): strong antiviral effects
[3]
  inhibitory activity against SIV (in words): extremely potent inhibitory activity
[5]
  inhibitory activity against HIV-2 (in words): extremely potent inhibitory activity

## CCCCCCCCCCCCCCCCCC(=O)NCCCC[C@H](NC(=O)[C@H](CCC(=O)O)NC(=O)[C@H](CC(C)C)NC(=O)[C@H](CCCCN)NC(=O)[C@H](CCCCN)NC(=O)[C@H](CC(C)C)NC(=O)[C@H](CCC(=O)O)NC(=O)[C@H](CCC(=O)O)NC(=O)[C@H](CCC(=O)O)NC(=O)[C@H](CC(N)=O)NC(=O)[C@H](CCCCN)NC(=O)[C@H](CCCCN)NC(=O)[C@H](CCC(N)=O)NC(=O)[C@H](CCC(N)=O)NC(=O)[C@H](CCC(=O)O)NC(=O)[C@H](CCC(=O)O)NC(=O)[C@H](C)NC(=O)[C@H](CCCCN)NC(=O)[C@H](CCCCN)NC(=O)[C@H](CC(C)C)NC(=O)[C@H](CC(C)C)NC(=O)[C@H](CCC(=O)O)NC(=O)[C@H](CCC(=O)O)NC(=O)[C@@H](NC(C)=O)[C@@H](C)CC)C(N)=O [LP-90] (Ac-IEELLKKAEEQQKKNEEELKKLEK(Stearoyl)-NH2)
[1]
  Tm value of the complex with N39: 71.1 °C
[6]
  antiviral activity (in words): potent antiviral activity
[3]
  inhibitory activity against SIV (in words): extremely potent inhibitory activity
[5]
  inhibitory activity against HIV-2 (in words): extremely potent inhibitory activity
